{"source": "patent US8088410B2", "about": "“25-hydroxy Vitamin D3 compositions” (DSM IP Assets B.V., priority 2002, dated 2012)", "assay": "Premix stability: percent retention of 25-hydroxy Vitamin D3 in stored feed premixes (Example 7)", "format": "physicochemical", "details": "Basic and Vitamin Premixes, stored at 25° C. and 35° C. up to 3 months (FIGS. 6 and 7)", "experimental": "Three premixes for use in animal feed were prepared having the following components in the following proportions by percent weight based on the total weight of the premix.\nEach of these premix compositions was prepared using a microencapsulated oil of the present invention or a prior art beadlet containing 25-hydroxy Vitamin D3. In addition, a control formulation was prepared, in which Vitamin D3 was substituted for the 25-hydroxy Vitamin D3. Each of the premixes was stored at 25° C. and 35° C., for a length of time up to 3 months. The percent retention of the 25-hydroxy Vitamin D3 was determined at each time and temperature.", "data": [{"smiles": "C=C1CCC(O)C/C1=C/C=C1\\CCCC2(C)C1CCC2C(C)CCCC(C)(C)O", "note": "(stereo not shown) [25-hydroxy Vitamin D3]", "values": [{"measurement": "stability of 25-hydroxy Vitamin D3 (% retention) in premix", "value": "less than that of Vitamin D3"}]}]}
